Assay results from a compilation of properties of binary mixtures (doi:10.5541/ijot.303607).

Assay: xn = mol fraction of the nth substance listed
Settings: 101 kPa

CC(O)C(=O)[O-].[NH3+]CCO (stereo not given) + CCO
speed of sound [m/s]
Settings	x2 = 0.0543	x2 = 0.1051	x2 = 0.206	x2 = 0.3151	x2 = 0.4144	x2 = 0.5122	x2 = 0.6116	x2 = 0.7232	x2 = 0.8109	x2 = 0.9528
288.15 K	–	1848	1792.9	1727.2	–	1590.8	1514	–	1349.2	–
290.65 K	1863.7	1839.9	–	1720.3	1654.4	1586.3	1507.4	1416	1342	1219.2
293.15 K	1855.8	1832.1	1779	1713.6	–	–	1500.8	1409.1	1334.8	1211.3
295.65 K	1848.3	1824.7	1772.2	1707	1640.9	1573.7	1494	1402.2	1327.5	1203.3
298.15 K	–	–	1765.7	1700.7	1634.4	–	1487.3	1395.3	1320.3	1195.4
300.65 K	–	–	1765.7	1700.7	1634.4	1567.3	1487.3	1395.3	–	–
303.15 K	1828	1804.4	–	–	1621.5	1555	1474.1	–	1305.9	1179.5
305.65 K	1821.7	1798.1	1747.1	1682.1	–	–	1467.5	1374.7	1298.8	1171.5
308.15 K	–	1791.9	1741.1	1676	1608.8	1542.7	1461	1367.9	1291.6	1163.6
310.65 K	1809.5	1785.8	1735.2	1670	1602.6	1536.5	1454.5	–	1284.4	–
313.15 K	–	1779.7	1729.3	1664	1596.3	1530.3	1448	1354.3	1277.3	1147.8
315.65 K	–	1773.7	1723.4	1658	1590.1	1524.2	1441.5	1347.5	1270.2	–
318.15 K	–	1767.8	1717.5	–	1583.9	1518.1	1435	1340.8	1263.1	1132.2
320.65 K	1786.1	1762	1711.8	1646	–	1511.9	1428.6	–	1256.1	1124.5
323.15 K	1780.3	1756.1	1706	1640.2	1571.5	1505.7	1422.2	1327.3	1249	–

CC(O)C(=O)[O-].[NH3+]CCO (stereo not given) + O
speed of sound [m/s]
Settings	x1 = 0.0088	x1 = 0.0135	x2 = 0.3197	x2 = 0.5253	x2 = 0.6892	x2 = 0.9027	x2 = 0.9293	x2 = 0.949	x2 = 0.9707
288.15 K	1513.4	–	–	1897.5	–	1778.8	1727.7	1676.5	1602.1
290.65 K	1520.5	1541.4	–	1891.7	1887.8	–	1728.5	1678.8	1606.7
293.15 K	1527.1	1547.4	1882.8	1886	1882.8	1776.9	1729	1680.8	–
295.65 K	1533.2	1553	1876.5	1880.3	1877.8	–	1729.3	1682.6	1614.6
298.15 K	1539	1558.2	1870.4	–	1872.8	1774.5	1729.4	1684.1	1618.1
300.65 K	1544.3	–	1864.4	1869.1	–	–	1729.3	–	1621.3
303.15 K	1549.2	1567.4	1858.5	1863.5	1862.7	–	1729	–	1624.1
305.65 K	1553.7	–	1852.6	1858	1857.7	–	1728.6	1687.2	1626.6
308.15 K	1557.8	1575.2	–	1852.5	1852.6	1767.7	1727.9	1687.7	1628.8
310.65 K	1561.5	–	1841.1	–	1847.5	–	1727	1688	1630.8
313.15 K	1565	–	1835.4	–	1842.3	1763.4	1726	1688.1	1632.4
315.65 K	1568	1584.1	1829.7	1835.9	–	1761.1	1724.7	1687.9	–
318.15 K	1570.7	1586.5	1824	–	1831.9	1758.6	–	1687.5	–
320.65 K	–	1588.5	1818.3	1824.8	1826.7	1756	–	–	1635.6
323.15 K	1575.1	1590.1	1812.7	–	–	1753.2	1719.9	1686.1	–

CC(O)C(=O)[O-].[NH3+]CCO (stereo not given) + CO
speed of sound [m/s]
Settings	x2 = 0.0675	x2 = 0.1469	x2 = 0.2586	x2 = 0.3811	x2 = 0.4275	x2 = 0.518	x2 = 0.6083	x2 = 0.7069	x2 = 0.7972	x2 = 0.8985
288.15 K	1875.8	–	1802.2	1745.7	1721.2	1666.4	1603.6	1522	–	1301.9
290.65 K	1867.4	1839.5	1795.1	–	1715	1660	1597.9	1515.5	1422	1294.8
293.15 K	–	1831.9	1788.4	–	–	1653.7	1592	1509	1415.5	1287.8
295.65 K	1852.2	1824.6	–	1727.1	–	–	1586.1	–	1409	–
298.15 K	1845.1	1817.8	1775.2	–	1697	1641.3	1580.2	–	1402.4	–
300.65 K	1838.4	1811.2	1768.8	1715.2	1690.9	–	1574.2	1489.5	1395.8	1266.1
303.15 K	1831.9	1804.9	1762.6	1709.4	1685	–	–	1483	1389.3	1258.9
305.65 K	1825.7	1798.8	1756.6	1703.5	1679	1623.2	1562.1	1476.6	1382.8	1251.8
308.15 K	1819.6	1792.9	1750.5	1697.6	1673	1617.2	1556	–	1376.2	1244.6
310.65 K	1813.6	1787	1744.5	1691.7	1667.1	1611.2	1549.9	1463.8	1369.7	1237.5
313.15 K	1807.7	1781.1	–	1685.9	1661.1	1605.2	–	1457.3	–	–
315.65 K	1801.9	1775.2	1732.6	1680	–	1599.1	1537.6	1451	1356.6	1223.2
318.15 K	1796.2	–	1726.7	1674.2	1649.2	1593.1	1531.4	1444.5	–	1216.1
320.65 K	1790.5	1763.7	1720.8	1668.4	1643.4	1587.1	1525.2	1438.2	1343.6	1209
323.15 K	–	1758	1715	1662.7	–	1581.1	1519	1431.9	1337.2	1201.9
